Results taken from PubChem BioAssay (NCI).
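Cultured in 96-well plates, cells were exposed to test compound for 48 hours across five concentrations. TGI: total growth inhibition.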

Experiments:
Test in all cases: DTP human tumour cell line panel, 48 h
[1] = system: KM12 colon
[2] = system: HOP-92 NSCLC
[3] = system: SF-295 CNS
[4] = system: M14 melanoma
[5] = system: A549 NSCLC
[6] = system: NCI-H226 lung
[7] = system: ACHN renal
[8] = system: MDA-MB-231 breast
[9] = system: MDA-N
[10] = system: PC-3 prostate
[11] = system: T-47D breast

SMILES	TGI [1] [µM]	TGI [2] [µM]	TGI [3] [µM]	TGI [4] [µM]	TGI [5] [µM]	TGI [6] [µM]	TGI [7] [µM]	TGI [8] [µM]	TGI [9] [µM]	TGI [10] [µM]	TGI [11] [µM]
O=C(c1ccncc1)n1nc(-c2ccccc2)c(N=Nc2ccc([N+](=O)[O-])cc2)c1-c1ccccc1	> 100	> 100	> 100	> 100	> 100	> 100					
CCCNC(=S)/N=C\c1c(O)c2ccccc2oc1=O	> 100	> 100	> 100	> 100	> 100	> 100	> 100	> 100	> 100	> 100	
O=C1CCCC2=C1CC1=C(CCCC1=O)N2c1cccc2ccccc12	> 100	> 100		> 100	> 100	> 100	> 100			> 100	
CC(=O)c1ccc2c(c1)oc(=O)n2CCN1CCCCC1	> 100		> 100	> 100		> 100	> 100	> 100	> 100	> 100	
Cc1cc(Cl)ccc1N=NC(=O)NNc1ccc(Cl)cc1C				35.3	30.6	36.1	40.3	26.6	30.3	22.8	26.6
[N-]=[N+]=NC1C(Br)C(=O)NC(=O)N1[C@H]1C[C@H](O)[C@@H](CO)O1 (stereo partly specified)	> 100	> 100	> 100	> 100	> 100		> 100				
CC1(O)/C(=N/O)CC2CC1C2(C)C (stereo unspecified)	> 100	> 100	> 100	> 100	> 100	> 100	> 100	> 100	> 100		> 100
CCOC(=O)CCC(NC(=O)c1ccc(Nc2nc3cc(C(F)(F)F)ccc3nc2-c2ccccc2)cc1)C(=O)OCC (stereo unspecified)	> 100	> 100	> 100	> 100	> 100	> 100	> 100	> 100		> 100	> 100
COC12C=CC(CC1)C1C(=O)c3c(C)c(C)n(C)c3C(=O)C12 (stereo unspecified)	> 100		> 100	> 100		> 100	> 100			> 100	> 100
Cc1cc2oc(=O)[nH]c(=S)c2c(C)c1C	> 100	> 100	> 100	> 100	> 100	> 100	> 100				
CCN(CC)Cc1cc(Nc2c3ccccc3nc3c2[nH]c2ccccc23)ccc1O	4.66	3.46	2.83	3.11	2.93	5.06	3.53				
Cc1ccccc1N(C)S(=O)(=O)c1ccccc1[N+](=O)[O-]	> 100		> 100	> 100	> 100	> 100	> 100	> 100	> 100	> 100	> 100
